Experiments:
[1] = target: T1, human recombinant 15-PGDH (Homo sapiens, UniProt P15428); assay: Recombinant 15-PGDH enzymatic inhibition assay (PGDH-Lumi, NADH signal); assay type: biochemical; settings: recombinant 15-PGDH; 15 min pre-incubation, 60 min reaction with PGE2 and NAD+, NADH signal
T1 sequence (P15428 1-266): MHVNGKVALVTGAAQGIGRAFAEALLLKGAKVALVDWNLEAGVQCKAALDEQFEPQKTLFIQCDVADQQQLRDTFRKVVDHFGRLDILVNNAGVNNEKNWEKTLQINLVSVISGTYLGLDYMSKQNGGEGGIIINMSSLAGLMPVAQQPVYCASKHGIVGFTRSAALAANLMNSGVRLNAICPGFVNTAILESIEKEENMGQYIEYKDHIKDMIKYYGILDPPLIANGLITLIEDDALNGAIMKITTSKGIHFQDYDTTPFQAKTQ
How it was run: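 Recombinant 15-PGDH pre-incubated 15 min at room temperature with compound (22 concentrations, 2-fold dilutions) in 50 mM Tris pH 7.5, 0.01% Tween-20, […].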

15-PGDH in A549 cells = target: T2, 15-PGDH in A549 cells (Homo sapiens, UniProt P15428); assay: A549 cellular 15-PGDH assay (PGE2 accumulation, HTRF); assay type: cell-based; settings: interleukin-stimulated, inhibitor 24 hrs, PGE2 by competitive HTRF, read-out: A549 Cell Assay IC50
T2 construct: endogenous in cells; host or cells: A549
T2 sequence (P15428 1-266): T1 sequence (P15428 1-266)
How it was run: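 IL-13-stimulated A549 lung carcinoma cells released PGE2, which was measured in supernatants by competitive HTRF with a Eu-cryptate anti-PGE2 antibody and labelled PGE2. Signal falls as PGE2 rises. IC50 values were derived from the binding data.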

IC50 [1] [nM] | IC50 (15-PGDH in A549 cells) [nM] | SMILES
3860 | > 750 | CO[C@H]1CC[C@]1(O)c1cc2ccc(-c3cnc4nn(C)cc4c3)nc2s1 (single isomer, unassigned) [Compound C70RS]
0.343 | 0.52 | Cn1ccc2cc(-c3ccc4cc([C@H](O)C5CC(F)(F)C5)sc4n3)ccc2c1=O (single isomer, unassigned) [Compound B50R]
24.7 | 61.8 | Cn1cc2cc(-c3ccc4cc([C@H](O)C5CC(F)(F)C5)ccc4n3)cnc2n1 (single isomer, unassigned) [Compound D7R]
0.488 | 0.669 | Cn1cc2cc(-c3ncc4cc([C@]5(O)C[C@@]6(CC6(F)F)C5)sc4n3)cnc2n1 (single isomer, unassigned) [Compound C114T, trans-1,1-difluoro-5-(2-(2-methyl-2H-pyrazolo[3,4-b]pyridin-5-yl)thieno[2,3-d]pyrimidin-6-yl)spiro[2.3]hexan-5-ol]
0.901 | 4.19 | CCC(O)c1cc2c(C3CC3)cc(-c3cnc4nn(C)cc4c3)nc2s1 (stereo not drawn) [Compound B13, 1-(4-cyclopropyl-6-(2-methyl-2H-pyrazolo[3,4-b]pyridin-5-yl)thieno[2,3-b]pyridin-2-yl)-1-propanol]
1.87 | 3.53 | Cn1cc2cc(-c3ccc4cc([C@@H](O)[C@@H]5CCOC5)sc4n3)cnc2n1 (single isomer, unassigned) [Compound B19SR]
1.23 | 3.63 | Cn1cc2cc(-c3ccc4cc([C@@H](O)[C@@H]5CCC5(F)F)sc4n3)cnc2n1 (single isomer, unassigned) [Compound B94SS]
13.2 | 1.82 | Cn1cc2cc(-c3ccc4cc(C5(O)CC(F)(F)C5)sc4n3)ccc2n1 [Compound C49, 3,3-difluoro-1-(6-(2-methyl-2H-indazol-5-yl)thieno[2,3-b]pyridin-2-yl)cyclobutanol]
0.381 | 0.263 | CC(C)n1ncc2cc(-c3ccc4cc([C@H](O)C5CC(F)(F)C5)sc4n3)cnc21 (single isomer, unassigned) [Compound B65R]
0.47 | 0.704 | Cn1cc2cc(-c3ccc4cc([C@H](O)[C@H]5CC5(F)F)sc4n3)cnc2n1 (single isomer, unassigned) [Compound B85RR]
1.53 | 1.45 | Cn1cc2cc(-c3ccc4cc([C@@H](O)[C@H]5C[C@@H](C(F)(F)F)C5)sc4n3)cnc2n1 (single isomer, unassigned) [Compound B84SC]
121 | 19.2 | Cn1cc2cc(-c3ccc4cc([C@@H](O)C(F)(F)F)sc4n3)cnc2n1 (single isomer, unassigned) [Compound B23S]
0.376 | 0.0863 | Cn1cc2cc(-c3ccc4cc([C@]5(O)C[C@](C)(C#N)C5)sc4n3)cnc2n1 [Compound C63T, trans-3-hydroxy-1-methyl-3-(6-(2-methyl-2H-pyrazolo[3,4-b]pyridin-5-yl)thieno[2,3-b]pyridin-2-yl)cyclobutanecarbonitrile]
1.42 | 7.19 | CO[C@]1(C(F)(F)F)C[C@@](O)(c2cc3cnc(-c4cnc5nn(C)cc5c4)nc3s2)C1 (single isomer, unassigned) [Compound C113C, cis-3-methoxy-1-(2-(2-methyl-2H-pyrazolo[3,4-b]pyridin-5-yl)thieno[2,3-d]pyrimidin-6-yl)-3-(trifluoromethyl)cyclobutanol]
426 | 305 | Cn1cc2cc(-c3ccc4ccc([C@@H](O)C5CCOCC5)cc4n3)cnc2n1 (single isomer, unassigned) [Compound D4S]
0.597 | 0.483 | CC(C)n1cc2cc(-c3ccc4cc([C@@H](O)C5CC(F)(F)C5)sc4n3)cnc2n1 (single isomer, unassigned) [Compound B64S]
0.61 | 0.842 | CCn1cc2cc(-c3ccc4cc([C@]5(O)C[C@@H](C(F)F)C5)sc4n3)cnc2n1 [Compound C87C, cis-3-(difluoromethyl)-1-(6-(2-ethyl-2H-pyrazolo[3,4-b]pyridin-5-yl)thieno[2,3-b]pyridin-2-yl)cyclobutanol]
0.333 | 1.46 | Cc1cn2cc(-c3ccc4cc([C@]5(O)C[C@@H](C(F)F)C5)sc4n3)cnc2n1 [Compound C97C, cis-3-(difluoromethyl)-1-(6-(2-methylimidazo[1,2-a]pyrimidin-6-yl)thieno[2,3-b]pyridin-2-yl)cyclobutanol]

IC50 [1] [nM] | IC50 (15-PGDH in A549 cells) [nM] | SMILES
0.75 | 5.42 | CO[C@]1(C)C[C@](O)(c2nc3ccc(-c4cnc5nn(C)cc5c4)nc3s2)C1 (single isomer, unassigned) [Compound C125T, trans-3-methoxy-3-methyl-1-(5-(2-methyl-2H-pyrazolo[3,4-b]pyridin-5-yl)[1,3]thiazolo[5,4-b]pyridin-2-yl)cyclobutanol]
0.756 | 0.348 | OC1(c2cc3ccc(-c4cnc5[nH]ncc5c4)nc3s2)CC(F)(F)C1 [Compound C36, 3,3-difluoro-1-(6-(1H-pyrazolo[3,4-b]pyridin-5-yl)thieno[2,3-b]pyridin-2-yl)cyclobutanol]
0.996 | 0.373 | OC1(c2cc3ccc(-c4cnc5nccnc5c4)nc3s2)CC(F)(F)C1 [Compound C47, 3,3-difluoro-1-(6-(pyrido[2,3-b]pyrazin-7-yl)thieno[2,3-b]pyridin-2-yl)cyclobutanol]
0.584 | 0.113 | CO[C@]1(C)C[C@@](O)(c2cc3ccc(-c4cnc5nn(C)cc5c4)nc3s2)C1 [Compound C59C, cis-3-methoxy-3-methyl-1-(6-(2-methyl-2H-pyrazolo[3,4-b]pyridin-5-yl)thieno[2,3-b]pyridin-2-yl)cyclobutanol]
0.398 | 0.0124 | Cn1nnc2cc(-c3ccc4cc([C@H](O)C5CC(F)(F)C5)sc4n3)cnc21 [Compound B82R, (R)-(3,3-difluorocyclobutyl)(6-(3-methyl-3H-[1,2,3]triazolo[4,5-b]pyridin-6-yl)thieno[2,3-b]pyridin-2-yl)methanol]
0.864 | 2.73 | CO[C@]1(C)C[C@](O)(c2cc3cnc(-c4cnc5nn(C)cc5c4)nc3s2)C1 (single isomer, unassigned) [Compound C118T]
0.24 | 1.41 | Cn1cc2cc(-c3ccc4cc([C@H](O)C5CCCC5)sc4c3)cnc2n1 (single isomer, unassigned) [Compound B58R]
0.325 | 0.311 | CC(C)n1cc2cc(-c3ccc4cc([C@H](O)C5CC(F)(F)C5)sc4n3)cnc2n1 (single isomer, unassigned) [Compound B64R]
0.505 | 0.438 | CO[C@H]1C[C@@H]([C@@H](O)c2cc3ccc(-c4cnc5nn(C)cc5c4)nc3s2)C1 (single isomer, unassigned) [Compound B88RC]
0.471 | 1.19 | Cn1cc2cc(-c3ccc4cc(C(O)C5CC5)sc4n3)cnc2n1 (stereo not drawn) [Compound B16, cyclopropyl(6-(2-methyl-2H-pyrazolo[3,4-b]pyridin-5-yl)thieno[2,3-b]pyridin-2-yl)methanol]
0.296 | 0.0103 | Cc1c([C@H](O)C2CC(F)(F)C2)sc2nc(-c3cnc4nn(C)cc4c3)ccc12 (single isomer, unassigned) [Compound B83R]
2.44 | 1.26 | Cn1cc2cc(-c3ccc4c(Cl)c(C5(O)CC(C)(C)C5)sc4n3)cnc2n1 [Compound C73, 1-(3-chloro-6-(2-methyl-2H-pyrazolo[3,4-b]pyridin-5-yl)thieno[2,3-b]pyridin-2-yl)-3,3-dimethylcyclobutanol]
1.21 | 0.642 | Cn1cc2cc(-c3ccc4cc([C@@H](O)[C@H]5C[C@H](C(F)(F)F)C5)sc4n3)cnc2n1 (single isomer, unassigned) [Compound B84ST]
0.278 | 0.137 | Cn1cc2cc(-c3ccc4cc([C@]5(O)C[C@@H](C(F)F)C5)sc4n3)cnc2n1 [Compound C30C, cis-3-(difluoromethyl)-1-(6-(2-methyl-2H-pyrazolo[3,4-b]pyridin-5-yl)thieno[2,3-b]pyridin-2-yl)cyclobutanol]
2.64 | 11.8 | Cc1cn2ccc(-c3ccc4cc([C@@H](O)C5CC(F)(F)C5)sc4n3)cc2n1 (single isomer, unassigned) [Compound B55S]
0.436 | 0.288 | CCn1cc2cc(-c3ccc4cc([C@@H](O)C5CC(F)(F)C5)sc4n3)cnc2n1 (single isomer, unassigned) [Compound B53S]
0.26 | 0.795 | Cn1cc2cc(-c3ccc4cc(C(O)C5CC(F)(F)C5)sc4n3)cnc2n1 (stereo not drawn) [Compound B30, (3,3-difluorocyclobutyl)(6-(2-methyl-2H-pyrazolo[3,4-b]pyridine-5-yl)thieno[2,3-b]pyridine-2-yl)methanol]
0.21 | 0.366 | O[C@@H](c1cc2ccc(-c3cnc4[nH]ncc4c3)nc2s1)C1CC(F)(F)C1 (single isomer, unassigned) [Compound B47R]
